Experimental data taken from article PMC12621200, “Giving an Enzyme Scissors: Serotonin Derivatives as Potent Organocatalytic Switches for DNA Repair Enzyme OGG1” (Journal of Medicinal Chemistry, 2025).
In brackets after ≈: the same amount, converted by molar mass. Entries after “also recorded” stand apart in the source; their conditions may differ. Read-outs that look alike come from different tables or passages of the source. Each block holds one compound with its values, some of them ahead of it.

What was measured:
[1] = target: T1, OGG1 (Homo sapiens, UniProt O15527); experiment: hOGG1 activity assay on radiolabeled 8-oxoG-containing oligonucleotide (urea-PAGE); format: biochemical; conditions: for stimulation of OGG1 AP lyase activity (incised substrate after 4 min): 6.25 μM TH10785, 6.25 μM 30, 10 μM 38, 10 nM hOGG1; for incision mode: elimination products of AP-site cleavage
T1 construct: made in house

[2] = Microsomal stability assay; format: in vitro ADME, human; conditions: for half-life at 2 μM: human, liver microsomes
[3] = tested on: panel of DNA glycosylases and NUDIX nucleotide binding proteins; experiment: Selectivity: lowest IC50 in glycosylase/NUDIX panel divided by OGG1 AC50; format: biochemical; conditions: lowest IC50 against panel / OGG1 AC50
[4] = target: T2, K249A mutant OGG1 (Homo sapiens, UniProt O15527, K249A); experiment: AP-lyase assay on radiolabeled AP-site-containing oligonucleotide (PAGE); format: biochemical; conditions: Figure S8
T2 construct: made in house

[5] = target: T1, OGG1; experiment: Biochemical fluorescence (fluorophore-quencher) assay of OGG1 incision rate, 8-oxoA substrate; conditions: for AcLE: (1.37/#heavy atoms) × pAC50; for AC50: concentration giving 50% of the incision rate of OGG1 with APE1 (2 nM) control
[6] = target: T1, OGG1; experiment: NaBH4 Schiff-base trapping assay; format: biochemical; conditions: AP or 8-oxoG DNA substrates; 6.25 μM TH10785, 6.25 μM 30, 10 μM 38
[7] = tested on: Caco-2 cell line; experiment: Caco-2 permeability assay; format: in vitro ADME
[8] = Caco-2 permeability assay; format: in vitro ADME; conditions: human, Caco-2, pH 7.4; for efflux ratio at 90 min, 10 μM: P app (B to A) / P app (A to B)
[9] = tested on: BJ-RAS and BJ-TERT cell lines; experiment: Resazurin cell viability assay for toxicity testing; format: cell-based; conditions: for toxicity in words: BJ-TERT and BJ-RAS cells, 30 at 100 μM over several days; for toxicity: incubation in BJ-RAS and BJ-TERT cell lines
[10] = target: MTH1 (Homo sapiens, UniProt P36639); experiment: Selectivity screen; format: biochemical; conditions: compound 30 at 99 µM
[11] = target: T3, APE1 (Homo sapiens, UniProt P27695); experiment: Selectivity screen; format: biochemical; conditions: compound 30 at 99 µM
T3 construct: made in house

[12] = target: T4, NUDT22 (Homo sapiens, UniProt Q9BRQ3); experiment: Selectivity screen, malachite green assay; format: biochemical; conditions: compound 30 at 99 µM
T4 construct: made in house
T4 sequence (Q9BRQ3 1-303): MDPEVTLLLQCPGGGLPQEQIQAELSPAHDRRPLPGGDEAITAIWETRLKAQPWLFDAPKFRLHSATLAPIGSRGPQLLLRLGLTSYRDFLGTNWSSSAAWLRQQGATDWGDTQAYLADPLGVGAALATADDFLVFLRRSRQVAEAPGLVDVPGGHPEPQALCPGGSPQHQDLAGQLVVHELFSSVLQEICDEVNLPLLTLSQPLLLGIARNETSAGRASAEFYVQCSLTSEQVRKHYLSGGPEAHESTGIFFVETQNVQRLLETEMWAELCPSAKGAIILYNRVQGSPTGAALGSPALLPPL

[13] = target: T5, NUDT5 (Homo sapiens, UniProt Q9UKK9); experiment: Selectivity screen, malachite green assay; format: biochemical; conditions: compound 30 at 99 µM
T5 construct: made in house

[14] = target: T6, NUDT15 (Homo sapiens, UniProt Q9NV35); experiment: Selectivity screen, malachite green assay; format: biochemical; conditions: compound 30 at 99 µM
T6 construct: made in house
T6 sequence (Q9NV35 1-164): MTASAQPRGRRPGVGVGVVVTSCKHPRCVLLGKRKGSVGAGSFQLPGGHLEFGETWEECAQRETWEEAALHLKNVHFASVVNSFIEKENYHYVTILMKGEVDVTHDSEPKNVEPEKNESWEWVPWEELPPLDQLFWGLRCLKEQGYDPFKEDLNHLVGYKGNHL

[15] = target: T7, NEIL1 (Homo sapiens, UniProt Q96FI4); experiment: Selectivity screen, glycosylase inhibition in kinetic mode; format: biochemical; conditions: compound 30 at 99 µM
T7 construct: made in house

[16] = target: UNG (Homo sapiens, UniProt P13051); experiment: as above; format: biochemical; conditions: compound 30 at 99 µM
[17] = target: T8, NTHL1 (Homo sapiens, UniProt P78549); experiment: as above; format: biochemical; conditions: compound 30 at 99 µM
T8 construct: made in house
T8 sequence (P78549 23-304): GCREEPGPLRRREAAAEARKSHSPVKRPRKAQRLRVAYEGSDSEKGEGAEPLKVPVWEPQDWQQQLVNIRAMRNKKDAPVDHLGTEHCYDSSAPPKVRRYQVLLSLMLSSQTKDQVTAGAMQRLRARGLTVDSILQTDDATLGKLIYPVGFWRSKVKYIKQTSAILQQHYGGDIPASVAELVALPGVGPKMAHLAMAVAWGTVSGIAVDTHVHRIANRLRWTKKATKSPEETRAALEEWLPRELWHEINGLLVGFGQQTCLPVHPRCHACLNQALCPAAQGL

[18] = target: T9, MPG (Homo sapiens, UniProt P29372); experiment: as above; format: biochemical; conditions: compound 30 at 99 µM
T9 construct: made in house

[19] = target: T10, TDG (Homo sapiens, UniProt Q13569); experiment: as above; format: biochemical; conditions: compound 30 at 99 µM
T10 construct: made in house

[20] = Kinetic solubility assay in PBS; format: physicochemical; conditions: for solubility at 2 h: phosphate-buffered saline, 25 °C, kinetic from dmso stock, kinetic solubility in PBS buffer (pH 7.4), read-out: aq. solubility
[21] = tested on: C253Y, F319A, K249W or D268A hOGG1 (active site mutants); experiment: Fluorophore-quencher assay with OGG1 mutants; format: biochemical, human; conditions: 0.25 μM of 38, 10 nM enzyme
[22] = target: T11, Lys249Trp mutant of OGG1 (Homo sapiens, UniProt O15527, K249W); experiment: Fluorophore-quencher assay with OGG1 mutants; format: biochemical; conditions: standard fluorescence assay
T11 construct: made in house

[23] = target: T12, S326C hOGG1 (Homo sapiens, UniProt O15527, S326C); experiment: Fluorophore-quencher assay with OGG1 mutants; format: biochemical; conditions: 0.25 μM of 38, 50 nM S326C hOGG1
T12 construct: made in house

[24] = tested on: activated peripheral blood mononuclear cells (human T cells); experiment: Activated peripheral blood mononuclear cell proliferation assay; format: cell-based
[25] = Microsomal stability assay; format: in vitro ADME; conditions: pH 7.4; mouse liver microsomes
[26] = basic nitrogen; cited from earlier work
[27] = Caco-2, in the presence of P-gp inhibitor (verapamil)

T1 sequence (O15527 whole entry): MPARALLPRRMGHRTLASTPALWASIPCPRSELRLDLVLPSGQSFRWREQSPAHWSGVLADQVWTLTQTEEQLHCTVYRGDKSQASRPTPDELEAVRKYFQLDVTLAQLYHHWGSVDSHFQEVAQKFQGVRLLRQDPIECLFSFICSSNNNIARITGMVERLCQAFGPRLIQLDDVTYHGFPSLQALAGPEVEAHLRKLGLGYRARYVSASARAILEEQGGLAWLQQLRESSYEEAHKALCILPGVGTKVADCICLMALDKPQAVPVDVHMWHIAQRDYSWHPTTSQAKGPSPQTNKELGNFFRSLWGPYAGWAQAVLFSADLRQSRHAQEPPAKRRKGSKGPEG
T3 sequence (P27695 whole entry, species assumed): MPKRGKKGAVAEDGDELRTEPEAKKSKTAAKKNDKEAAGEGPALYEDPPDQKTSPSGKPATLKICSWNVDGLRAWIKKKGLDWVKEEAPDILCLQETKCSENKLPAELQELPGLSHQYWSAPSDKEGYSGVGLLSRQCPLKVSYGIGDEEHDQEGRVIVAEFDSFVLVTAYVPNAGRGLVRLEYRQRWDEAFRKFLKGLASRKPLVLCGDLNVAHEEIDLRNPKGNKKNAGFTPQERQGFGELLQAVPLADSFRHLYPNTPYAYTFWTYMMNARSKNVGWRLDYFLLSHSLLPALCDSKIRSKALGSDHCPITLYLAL
Chain of UNG (P13051 94-313 limits assumed): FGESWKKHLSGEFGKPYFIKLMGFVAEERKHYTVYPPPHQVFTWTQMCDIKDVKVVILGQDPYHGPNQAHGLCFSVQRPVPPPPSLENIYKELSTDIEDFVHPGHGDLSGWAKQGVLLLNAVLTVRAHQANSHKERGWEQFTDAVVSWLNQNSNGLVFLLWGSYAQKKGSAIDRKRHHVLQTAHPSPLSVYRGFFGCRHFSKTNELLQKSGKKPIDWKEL
T2 sequence (O15527 whole entry K249A): as the sequence (O15527 whole entry) above, with K249A counted along it
T7 sequence (Q96FI4 whole entry, species assumed): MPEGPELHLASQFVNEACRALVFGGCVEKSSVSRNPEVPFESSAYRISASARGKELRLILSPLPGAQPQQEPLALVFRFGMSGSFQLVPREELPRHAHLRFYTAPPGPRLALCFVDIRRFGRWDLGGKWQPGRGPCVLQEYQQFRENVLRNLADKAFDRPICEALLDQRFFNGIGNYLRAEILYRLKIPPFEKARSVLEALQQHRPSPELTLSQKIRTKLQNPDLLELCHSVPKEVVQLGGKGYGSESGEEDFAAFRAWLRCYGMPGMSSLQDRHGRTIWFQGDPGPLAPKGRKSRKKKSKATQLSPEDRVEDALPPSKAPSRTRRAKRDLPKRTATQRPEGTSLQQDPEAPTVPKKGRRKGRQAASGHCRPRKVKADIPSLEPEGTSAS
T10 sequence (Q13569 whole entry, species assumed): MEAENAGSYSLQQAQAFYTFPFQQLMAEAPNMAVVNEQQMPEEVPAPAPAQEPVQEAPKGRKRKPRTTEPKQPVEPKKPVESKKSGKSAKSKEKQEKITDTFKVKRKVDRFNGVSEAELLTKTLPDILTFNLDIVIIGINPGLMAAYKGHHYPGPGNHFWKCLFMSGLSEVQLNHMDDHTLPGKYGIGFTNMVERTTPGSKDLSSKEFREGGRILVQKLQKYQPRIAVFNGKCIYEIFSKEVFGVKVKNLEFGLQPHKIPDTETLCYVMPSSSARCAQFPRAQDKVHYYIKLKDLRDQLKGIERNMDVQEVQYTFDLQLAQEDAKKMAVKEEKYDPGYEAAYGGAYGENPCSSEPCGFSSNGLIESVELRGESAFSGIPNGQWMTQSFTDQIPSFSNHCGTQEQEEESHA
T12 sequence (O15527 whole entry S326C): as the sequence (O15527 whole entry) above, with S326C counted along it
T11 sequence (O15527 whole entry K249W): as the sequence (O15527 whole entry) above, with K249W counted along it
T9 sequence (P29372 18-298, species assumed): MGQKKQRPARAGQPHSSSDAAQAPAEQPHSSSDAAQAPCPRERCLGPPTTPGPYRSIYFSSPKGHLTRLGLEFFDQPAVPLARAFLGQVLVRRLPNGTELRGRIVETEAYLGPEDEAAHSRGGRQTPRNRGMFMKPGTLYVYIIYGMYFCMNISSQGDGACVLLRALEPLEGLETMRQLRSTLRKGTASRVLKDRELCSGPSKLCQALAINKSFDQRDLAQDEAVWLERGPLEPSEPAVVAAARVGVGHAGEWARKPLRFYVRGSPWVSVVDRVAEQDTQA

Compound: NCCc1c(-c2cccnc2)[nH]c2ccc(O)cc12 [Compound 30, 3-(2-Aminoethyl)-2-(pyridin-3-yl)-1H-indol-5-ol]
stimulation of OGG1 AP lyase activity (incised substrate after 4 min) [1]: not significant
incision mode [1]: primarily induced β-elimination and β
half-life at 2 μM ([2]; pH 7.4, human liver microsomes, read-out: t 1/2): 3.55 h
half-life at 2 μM ([2]; pH 7.4, human microsomes, read-out: microsomal half-life / metabolic stability): > 3.5 h
k el at 2 μM ([2]; pH 7.4, human liver microsomes): 5e-05 s⁻¹
microsomal CLint at 2 μM ([2]; pH 7.4, human liver microsomes): 8 µL/min/mg
selectivity [3]: >150-fold
restoration of AP-lyase activity of Lys249Ala mutant [4]: failed to restore AP-lyase activity
AcLE [5]: 0.456
AC50 ([5]; AC50 (CI95%)): 580 nM
improvement of potency over 1 ([5]; AC50 ratio): 10 fold
effect on level of cross-linked product (Schiff-base formation) [6]: no discernible effect
P app (AB) [7, 27]: 1.07 ×10⁻⁶ cm/s
P app (BA) [7, 27]: 1.87 ×10⁻⁶ cm/s
P-gp substrate assessment ([7]; decrease of efflux with verapamil): P-gp substrate
Papp A→B at 90 min, 10 µM [8]: 0.53 ×10⁻⁶ cm/s
Papp B→A at 90 min, 10 µM [8]: 2.15 ×10⁻⁶ cm/s
efflux ratio at 90 min, 10 μM [8]: 4.1
toxicity in words [9]: no detectable toxicity
toxicity [9]: >100 µM
inhibition at 99 µM [10]: 34%
inhibition [11]: No effect
inhibition [12]: No effect
inhibition [13]: No effect
inhibition [14]: No effect
inhibition at 99 µM [15]: 13%
inhibition at 99 µM [16]: 31%
inhibition at 99 µM [17]: 25%
inhibition at 99 µM [18]: 17%
inhibition at 99 µM [19]: 55%
higher aqueous solubility compared to TH10785 [20]: 58 fold
solubility at 2 h ([20]; pH 7.4, aqueous buffer): > 300 µM

Compound: NCCc1c(-c2cccnc2)[nH]c2cc(F)c(O)cc12 [Compound 38, 3-(2-Aminoethyl)-6-fluoro-2-(pyridin-3-yl)-1H-indol-5-ol]
stimulation of OGG1 AP lyase activity (incised substrate after 4 min) [1]: Stimulation of OGG1 AP lyase activity was observed
incision mode [1]: primarily induced β-elimination
restoration of activity in active site mutants [21]: did not restore activity
AC50 ([5]; read-out: AC50 (CI95%)): 40 nM
restoration of activity of Lys249Trp mutant [22]: failed to restore activity
effect on level of cross-linked product (Schiff-base formation) [6]: no discernible effect
effect on AP-lyase activity of Ser326Cys mutant [23]: accelerated the AP-lyase activity

microsomal CLint at 2 μM ([2]; pH 7.4, human liver microsomes): 18 µL/min/mg
selectivity [3]: >120-fold
AcLE [5]: 0.419
AC50 ([5]; read-out: AC50 (CI95%)): 870 nM
AcLLE ([5]; pAC50 – clogP): 1.57
microsomal CLint at 2 μM [25]: 347 µL/min/mg
effect on level of cross-linked product (Schiff-base formation) [6]: no discernible effect
Papp A→B at 90 min, 10 µM [8]: 1.5 ×10⁻⁶ cm/s
Papp B→A at 90 min, 10 µM [8]: 4.9 ×10⁻⁶ cm/s
efflux ratio at 90 min, 10 μM [8]: 3.3
solubility at 2 h ([20]; aqueous buffer): 6 µM (≈ 1.6 µg/mL)
Compound: c1ccc2c(NC3CCCCC3)nc(C3CC3)nc2c1 [TH10785, reference compound]
effect on proliferation ([24]; CD3/CD28/IL-2 activated cells, 96 h): suppresses proliferation in a dose-dependent manner at 10 and 20 μM; also recorded: inhibits proliferation
toxicity ([24]; value obtained using PBMCs): 20 µM
stimulation of OGG1 AP lyase activity (incised substrate after 4 min) [1]: Stimulation of OGG1 AP lyase activity was observed
incision mode [1]: both β and β,δ-elimination products and β,δ
pK a [26]: ≈ 6.55
toxicity in words [9]: some toxicity
toxicity [9]: > 18 µM
